Molecular target: T1, recombinant guanylate cyclase reporter cell line (Rattus norvegicus, UniProt P19686+P20595)
T1 construct: expressed in transfected cells
T1 sequence (P20595 1-619): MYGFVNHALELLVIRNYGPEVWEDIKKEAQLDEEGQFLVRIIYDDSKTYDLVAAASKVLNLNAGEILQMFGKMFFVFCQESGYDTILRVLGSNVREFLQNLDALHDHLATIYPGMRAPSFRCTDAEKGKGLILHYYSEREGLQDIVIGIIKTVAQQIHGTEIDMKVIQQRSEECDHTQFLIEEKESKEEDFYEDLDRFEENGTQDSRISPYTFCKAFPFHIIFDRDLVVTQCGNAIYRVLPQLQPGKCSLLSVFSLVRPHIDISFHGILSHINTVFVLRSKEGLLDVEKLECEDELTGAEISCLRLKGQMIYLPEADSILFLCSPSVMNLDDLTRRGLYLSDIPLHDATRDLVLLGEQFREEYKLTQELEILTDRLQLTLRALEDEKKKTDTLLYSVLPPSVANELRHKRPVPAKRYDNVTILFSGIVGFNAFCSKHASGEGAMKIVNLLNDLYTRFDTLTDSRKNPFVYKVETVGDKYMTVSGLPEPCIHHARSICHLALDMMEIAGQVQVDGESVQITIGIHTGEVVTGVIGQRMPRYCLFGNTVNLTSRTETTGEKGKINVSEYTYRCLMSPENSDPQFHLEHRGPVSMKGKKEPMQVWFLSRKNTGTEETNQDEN
T1 sequence (P19686 1-690): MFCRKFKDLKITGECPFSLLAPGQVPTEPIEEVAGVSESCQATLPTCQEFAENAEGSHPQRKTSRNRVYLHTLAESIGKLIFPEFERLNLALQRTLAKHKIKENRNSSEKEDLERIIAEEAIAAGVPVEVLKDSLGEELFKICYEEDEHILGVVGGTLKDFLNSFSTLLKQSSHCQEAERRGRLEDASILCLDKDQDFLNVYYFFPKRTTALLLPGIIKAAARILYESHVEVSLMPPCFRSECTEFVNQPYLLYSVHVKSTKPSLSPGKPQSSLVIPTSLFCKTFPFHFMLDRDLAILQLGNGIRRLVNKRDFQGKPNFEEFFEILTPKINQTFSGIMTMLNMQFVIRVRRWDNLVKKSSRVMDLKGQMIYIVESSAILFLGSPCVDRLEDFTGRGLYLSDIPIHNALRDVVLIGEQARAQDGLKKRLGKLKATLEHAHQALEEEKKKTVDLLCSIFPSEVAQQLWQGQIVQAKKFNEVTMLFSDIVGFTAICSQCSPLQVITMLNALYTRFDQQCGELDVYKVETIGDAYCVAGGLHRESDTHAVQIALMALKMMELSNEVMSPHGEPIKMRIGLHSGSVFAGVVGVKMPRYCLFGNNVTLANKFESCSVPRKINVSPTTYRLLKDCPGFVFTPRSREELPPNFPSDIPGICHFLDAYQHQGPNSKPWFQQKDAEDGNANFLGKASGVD
Assay: Action on recombinant guanylate cyclase reporter cell line
Assay type: cell-based
Conditions: in some cases mean values obtained from individual determinations
How it was run: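 Cell-based reporter assay with recombinant guanylate cyclase expressed in a reporter cell line, per a published method. Activity reported as minimal effective concentration (MEC), in some cases as the mean of individual determinations.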

| SMILES | MEC (minimal effective concentration) [µM] |
| --- | --- |
| Cc1cc(OCc2ncccc2F)c2nc(C)c(C(=O)NC(CC(F)(F)F)C(C)(C)O)n2c1 (single isomer, unassigned; ent-8) [Example 185, ent-8-[(3-fluoropyridin-2-yl)methoxy]-2,6-dimethyl-N-(1,1,1-trifluoro-4-hydroxy-4-methylpentan-3-yl)imidazo[1,2-a]pyridine-3-carboxamide (enantiomer B)] | 0.3 |
| Cc1cc(OCc2c(F)cncc2F)c2nc(C)c(C(=O)NC(CCCC(F)(F)F)C(C)(C)O)n2c1 (single isomer, unassigned; ent-8) [Example 189, ent-8-[(3,5-difluoropyridine-4-yl)methoxy]-2,6-dimethyl-N-(7,7,7-trifluoro-2-hydroxy-2-methylheptan-3-yl)imidazo[1,2-a]pyridine-3-carboxamide (enantiomer A)] | 1 |
| Cc1cc(OCc2ncccc2F)c2nc(C)c(C(=O)NC(CCCC(F)(F)C(F)(F)F)C(C)(C)O)n2c1 (single isomer, unassigned; ent-8) [Example 191, ent-8-[(3-fluoropyridin-2-yl)methoxy]-2,6-dimethyl-N-(7,7,8,8,8-pentafluoro-2-hydroxy-2-methyloctan-3-yl)imidazo[1,2-a]pyridine-3-carboxamide (enantiomer A)] | 3 |
| Cc1cc(OCc2ncccc2F)c2nc(C)c(C(=O)NC(CCCC(F)(F)C(F)(F)F)C(C)(C)O)n2c1 (single isomer, unassigned; ent-8) [Example 192, ent-8-[(3-fluoropyridin-2-yl)methoxy]-2,6-dimethyl-N-(7,7,8,8,8-pentafluoro-2-hydroxy-2-methyloctan-3-yl)imidazo[1,2-a]pyridine-3-carboxamide (enantiomer B)] | 2 |
| Cc1cc(OCc2c(F)cncc2F)c2nc(C)c(C(=O)NC(CCC(F)(F)C(F)(F)F)C(C)(C)O)n2c1 (single isomer, unassigned; ent-8) [Example 193, ent-8-[(3,5-difluoropyridine-4-yl)methoxy]-2,6-dimethyl-N-(6,6,7,7,7-pentafluoro-2-hydroxy-2-methylheptan-3-yl)imidazo[1,2-a]pyridine-3-carboxamide (enantiomer A)] | 1 |
| Cc1cc(OCc2ncccc2F)c2nc(C)c(C(=O)NC(CCC(O)C(F)(F)F)C(C)(C)O)n2c1 (single isomer, unassigned; ent-8) [Example 196, ent-8-[(3-fluoropyridin-2-yl)methoxy]-2,6-dimethyl-N-(7,7,7-trifluoro-2,6-dihydroxy-2-methylheptan-3-yl)imidazo[1,2-a]pyridine-3-carboxamide (enantiomer D)] | 3 |
| CCCC[C@H](CO)NC(=O)c1c(C)nc2c(OCc3c(F)cccc3F)cccn12 [Example 1, 8-[(2,6-Difluorobenzyl)oxy]-N-[(2R)-1-hydroxyhexan-2-yl]-2-methylimidazo[1,2-a]pyridine-3-carboxamide] | 0.05 |
| CCCC[C@H](CO)NC(=O)c1c(C)nc2c(OCc3c(F)ccc(F)c3F)cccn12 [Example 2] | 0.03 |
| CCCC[C@H](CO)NC(=O)c1c(C)nc2c(OCc3c(F)cccc3Cl)cccn12 [Example 3] | 0.1 |
| CCCC[C@H](CO)NC(=O)c1c(C)nc2c(OCc3ccccc3Cl)cccn12 [Example 4] | 0.1 |
| CCCC[C@H](CO)NC(=O)c1c(C)nc2c(OCc3ccccc3F)cccn12 [Example 5] | 0.1 |
| CCCC[C@H](CO)NC(=O)c1c(C)nc2c(OCc3cccc(F)c3)cccn12 [Example 6] | 0.1 |
| CCCC[C@H](CO)NC(=O)c1c(C)nc2c(OCc3c(F)c(F)cc(F)c3F)cccn12 [Example 7] | 0.3 |
| CCCC[C@H](CO)NC(=O)c1c(C)nc2c(OCc3c(Cl)cccc3Cl)cccn12 [Example 8] | 0.3 |
| CCCC[C@H](CO)NC(=O)c1c(C)nc2c(OCc3cccc(Cl)c3Cl)cccn12 [Example 9] | 0.5 |
| CCCC[C@H](CO)NC(=O)c1c(C)nc2c(OCc3cccc(F)c3F)cccn12 [Example 10] | 0.3 |
| CCCC[C@H](CO)NC(=O)c1c(C)nc2c(OCc3cccc(C)c3F)cccn12 [Example 11] | 1.5 |
| CCCC[C@H](CO)NC(=O)c1c(C)nc2c(OCc3cccc4c3OC(F)(F)O4)cccn12 [Example 12] | 3.0 |
| CCCC[C@H](CO)NC(=O)c1c(C)nc2c(OCc3c(C)cccc3C)cccn12 [Example 13] | 3.0 |

| SMILES | MEC (minimal effective concentration) [µM] |
| --- | --- |
| CCCC[C@H](CO)NC(=O)c1c(C)nc2c(OCc3cccc(C(F)(F)F)c3F)cccn12 [Example 14] | 3.0 |
| CCCC[C@H](CO)NC(=O)c1c(C)nc2c(OCc3c(F)cc(F)cc3F)cccn12 [Example 15, N-[(2R)-1-Hydroxyhexan-2-yl]-2-methyl-8-[(2,4,6-trifluorobenzyl)oxy]imidazo[1,2-a]pyridine-3-carboxamide] | 0.1 |
| CC[C@H](CO)NC(=O)c1c(C)nc2c(OCc3ccccc3)cccn12 [Example 17, 8-(Benzyloxy)-N-[(2R)-1-hydroxybutan-2-yl]-2-methylimidazo[1,2-a]pyridine-3-carboxamide] | 3.0 |
| CCC[C@H](CO)NC(=O)c1c(C)nc2c(OCc3c(F)cccc3F)cccn12 [Example 18] | 0.1 |
| Cc1nc2c(OCc3c(F)cccc3F)cccn2c1C(=O)N[C@H]1CCC[C@@H]1O [Example 19] | 1.0 |
| Cc1nc2c(OCc3c(F)cccc3F)cccn2c1C(=O)NC(C)(C)[C@H](C)O [Example 20] | 1.0 |
| Cc1nc2c(OCc3c(F)cccc3F)cccn2c1C(=O)NCCO [Example 21] | 1.0 |
| Cc1nc2c(OCc3c(F)cccc3F)cccn2c1C(=O)NCCCO [Example 22] | 1.0 |
| Cc1nc2c(OCc3c(F)cccc3F)cccn2c1C(=O)NCCCCO [Example 23] | 0.3 |
| Cc1nc2c(OCc3c(F)cccc3F)cccn2c1C(=O)NCCOCCO [Example 24] | 1.0 |
| CSCC[C@H](CO)NC(=O)c1c(C)nc2c(OCc3c(F)cccc3F)cccn12 [Example 25] | 0.1 |
| Cc1nc2c(OCc3c(F)cccc3F)cccn2c1C(=O)NC(CO)CO [Example 26] | 2.0 |
| Cc1nc2c(OCc3c(F)cccc3F)cccn2c1C(=O)NCC1CCCC[C@H]1O (some centres unmarked) [Example 27] | 0.3 |
| Cc1nc2c(OCc3c(F)cccc3F)cccn2c1C(=O)NCCC(C)O (centres unmarked) [Example 28] | 0.65 |
| Cc1nc2c(OCc3c(F)cccc3F)cccn2c1C(=O)N[C@@H](CO)C(C)C [Example 29] | 0.1 |
| CCC(O)CNC(=O)c1c(C)nc2c(OCc3c(F)cccc3F)cccn12 (centres unmarked) [Example 30] | 0.3 |
| Cc1nc2c(OCc3c(F)cccc3F)cccn2c1C(=O)NC1(CO)CCCC1 [Example 31] | 1.0 |
| Cc1nc2c(OCc3c(F)cccc3F)cccn2c1C(=O)NC[C@@H](O)c1ccccc1 [Example 32] | 1.0 |
| Cc1nc2c(OCc3c(F)cccc3F)cccn2c1C(=O)NC[C@H](O)c1ccccc1 [Example 33] | 0.3 |

Reference: patent US8946215B2, “Hydroxy-substituted imidazo[1,2-a]pyridinecarboxamides and their use” (Bayer Pharma Aktiengesellschaft, priority 2012, dated 2015)
